In PubChem BioAssay (NCI):
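Results reflect a 48-hour exposure of cells in 96-well plates to compound at five concentrations. Here, GI50 denotes the concentration required for 50% inhibition of growth. TGI: concentration producing complete growth inhibition.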

Key:
Experiment in all cases: NCI tumour cell line growth inhibition, 48 h
OVCAR-8 ovarian = test system: OVCAR-8 ovarian
OVCAR-3 ovarian = test system: OVCAR-3 ovarian
HOP-62 NSCLC = test system: HOP-62 NSCLC
SK-MEL-28 melanoma = test system: SK-MEL-28 melanoma
LOX IMVI melanoma = test system: LOX IMVI melanoma
OVCAR-4 ovarian = test system: OVCAR-4 ovarian
SK-OV-3 ovarian = test system: SK-OV-3 ovarian
HCT-15 colon = test system: HCT-15 colon
786-0 renal = test system: 786-0 renal
UO-31 renal = test system: UO-31 renal
SK-MEL-5 melanoma = test system: SK-MEL-5 melanoma
RXF 393 renal = test system: RXF 393 renal
NCI-H522 lung = test system: NCI-H522 lung
MOLT-4 leukemia = test system: MOLT-4 leukemia
MDA-MB-435 = test system: MDA-MB-435
NCI-H23 lung = test system: NCI-H23 lung
COLO 205 colon = test system: COLO 205 colon
SW-620 colon = test system: SW-620 colon
HS 578T breast = test system: HS 578T breast
U251 CNS = test system: U251 CNS
NCI/ADR-RES ovarian = test system: NCI/ADR-RES ovarian
DU-145 prostate = test system: DU-145 prostate
CCRF-CEM leukemia = test system: CCRF-CEM leukemia
TK-10 renal = test system: TK-10 renal
T-47D breast = test system: T-47D breast
RPMI-8226 leukemia = test system: RPMI-8226 leukemia
CAKI-1 renal = test system: CAKI-1 renal
NCI-H226 lung = test system: NCI-H226 lung
HCT-116 colon = test system: HCT-116 colon
PC-3 prostate = test system: PC-3 prostate
MALME-3M melanoma = test system: MALME-3M melanoma
SNB-75 CNS = test system: SNB-75 CNS
SF-539 CNS = test system: SF-539 CNS
A549 NSCLC = test system: A549 NSCLC
SF-268 CNS = test system: SF-268 CNS
M14 melanoma = test system: M14 melanoma
ACHN renal = test system: ACHN renal
HOP-92 NSCLC = test system: HOP-92 NSCLC
NCI-H460 lung = test system: NCI-H460 lung
MDA-MB-231 breast = test system: MDA-MB-231 breast
UACC-62 melanoma = test system: UACC-62 melanoma
HL-60(TB) leukemia = test system: HL-60(TB) leukemia
OVCAR-5 ovarian = test system: OVCAR-5 ovarian
UACC-257 melanoma = test system: UACC-257 melanoma
SF-295 CNS = test system: SF-295 CNS
K-562 leukemia = test system: K-562 leukemia
IGROV1 ovarian = test system: IGROV1 ovarian
HCC-2998 colon = test system: HCC-2998 colon
BT-549 breast = test system: BT-549 breast
SN12C renal = test system: SN12C renal
SR leukemia = test system: SR leukemia
SK-MEL-2 melanoma = test system: SK-MEL-2 melanoma
SNB-19 CNS = test system: SNB-19 CNS
MCF7 breast = test system: MCF7 breast
A498 renal = test system: A498 renal
HT29 colon = test system: HT29 colon
EKVX NSCLC = test system: EKVX NSCLC
KM12 colon = test system: KM12 colon

For `C#CCN1C(=O)/C(=c2\sc3n(c2=O)C2C(NN=3)N(CC)C(=O)N2CC)c2ccccc21` (centres undefined), the GI50 (OVCAR-8 ovarian) was 1.07 µM, the TGI (OVCAR-8 ovarian) was > 100 µM and the GI50 (OVCAR-3 ovarian) was 0.316 µM. The TGI (OVCAR-3 ovarian) was 1.69 µM, the GI50 (HOP-62 NSCLC) was 0.868 µM and the TGI (HOP-62 NSCLC) was > 52.6 µM. For the same compound, the GI50 (SK-MEL-28 melanoma) was 0.734 µM, the TGI (SK-MEL-28 melanoma) was > 100 µM and the GI50 (LOX IMVI melanoma) was 0.73 µM. The TGI (LOX IMVI melanoma) was > 100 µM, the GI50 (OVCAR-4 ovarian) was > 27.3 µM and the TGI (OVCAR-4 ovarian) was > 100 µM. For the same compound, the GI50 (SK-OV-3 ovarian) was 3.11 µM, the TGI (SK-OV-3 ovarian) was > 100 µM and the GI50 (HCT-15 colon) was 0.394 µM. The TGI (HCT-15 colon) was > 100 µM, the GI50 (786-0 renal) was 0.669 µM and the TGI (786-0 renal) was 22.5 µM. The GI50 (UO-31 renal) was 0.673 µM, the TGI (UO-31 renal) was > 100 µM and the GI50 (SK-MEL-5 melanoma) was 0.529 µM. For the same compound, the TGI (SK-MEL-5 melanoma) was > 85.9 µM, the GI50 (RXF 393 renal) was 0.354 µM and the TGI (RXF 393 renal) was 2.28 µM. The GI50 (NCI-H522 lung) was 0.447 µM, the TGI (NCI-H522 lung) was > 76 µM and the GI50 (MOLT-4 leukemia) was 0.708 µM. For the same compound, the TGI (MOLT-4 leukemia) was > 100 µM, the GI50 (MDA-MB-435) was 0.214 µM and the TGI (MDA-MB-435) was 0.507 µM. It also gave a GI50 (NCI-H23 lung) of 1.51 µM, a TGI (NCI-H23 lung) of 37.2 µM and a GI50 (COLO 205 colon) of 0.987 µM. For the same compound, the TGI (COLO 205 colon) was > 100 µM, the GI50 (SW-620 colon) was 0.422 µM and the TGI (SW-620 colon) was > 100 µM. It also gave a GI50 (HS 578T breast) of 0.368 µM, a TGI (HS 578T breast) of 32.8 µM and a GI50 (U251 CNS) of 0.648 µM. The TGI (U251 CNS) was > 47 µM, the GI50 (NCI/ADR-RES ovarian) was 0.712 µM and the TGI (NCI/ADR-RES ovarian) was 21.9 µM. For the same compound, the GI50 (DU-145 prostate) was 1.04 µM, the TGI (DU-145 prostate) was > 38.6 µM and the GI50 (CCRF-CEM leukemia) was 0.381 µM. The TGI (CCRF-CEM leukemia) was > 100 µM, the GI50 (TK-10 renal) was 14.1 µM and the TGI (TK-10 renal) was 51.4 µM. For the same compound, the GI50 (T-47D breast) was 0.639 µM, the TGI (T-47D breast) was > 100 µM and the GI50 (RPMI-8226 leukemia) was 0.375 µM. The GI50 (CAKI-1 renal) was 0.459 µM, the TGI (CAKI-1 renal) was > 54.2 µM and the GI50 (NCI-H226 lung) was 1.25 µM. For the same compound, the TGI (NCI-H226 lung) was > 83.2 µM, the GI50 (HCT-116 colon) was 0.376 µM and the TGI (HCT-116 colon) was > 100 µM. For the same compound, the GI50 (PC-3 prostate) was 0.463 µM, the TGI (PC-3 prostate) was > 100 µM and the GI50 (MALME-3M melanoma) was 0.595 µM. The TGI (MALME-3M melanoma) was > 100 µM, the GI50 (SNB-75 CNS) was 0.25 µM and the TGI (SNB-75 CNS) was 0.997 µM. The GI50 (SF-539 CNS) was 0.295 µM, the TGI (SF-539 CNS) was 1.4 µM and the GI50 (A549 NSCLC) was 0.968 µM. For the same compound, the TGI (A549 NSCLC) was > 100 µM, the GI50 (SF-268 CNS) was 5.5 µM and the TGI (SF-268 CNS) was > 100 µM. For the same compound, the GI50 (M14 melanoma) was 0.283 µM, the GI50 (ACHN renal) was 0.65 µM and the TGI (ACHN renal) was > 58.2 µM. For the same compound, the GI50 (HOP-92 NSCLC) was 1.55 µM, the TGI (HOP-92 NSCLC) was 78.7 µM and the GI50 (NCI-H460 lung) was 0.439 µM. For the same compound, the TGI (NCI-H460 lung) was > 100 µM, the GI50 (MDA-MB-231 breast) was 2.07 µM and the TGI (MDA-MB-231 breast) was 40 µM. The GI50 (UACC-62 melanoma) was 0.453 µM, the TGI (UACC-62 melanoma) was > 74.1 µM and the GI50 (HL-60(TB) leukemia) was 0.271 µM. For the same compound, the TGI (HL-60(TB) leukemia) was 0.775 µM, the GI50 (OVCAR-5 ovarian) was 1.21 µM and the TGI (OVCAR-5 ovarian) was > 100 µM. The GI50 (UACC-257 melanoma) was 49.2 µM, the TGI (UACC-257 melanoma) was > 100 µM and the GI50 (SF-295 CNS) was 0.529 µM. The TGI (SF-295 CNS) was 8.83 µM, the GI50 (K-562 leukemia) was 0.342 µM and the TGI (K-562 leukemia) was > 100 µM. For the same compound, the GI50 (IGROV1 ovarian) was 0.589 µM, the TGI (IGROV1 ovarian) was > 91.1 µM and the GI50 (HCC-2998 colon) was 1.19 µM. The TGI (HCC-2998 colon) was > 100 µM, the GI50 (BT-549 breast) was 0.568 µM and the TGI (BT-549 breast) was 12.4 µM. The GI50 (SN12C renal) was 0.797 µM, the TGI (SN12C renal) was > 100 µM and the GI50 (SR leukemia) was 0.344 µM. For the same compound, the TGI (SR leukemia) was > 100 µM, the GI50 (SK-MEL-2 melanoma) was 3.21 µM and the TGI (SK-MEL-2 melanoma) was > 100 µM. The GI50 (SNB-19 CNS) was 0.811 µM, the TGI (SNB-19 CNS) was > 100 µM and the GI50 (MCF7 breast) was 0.377 µM. The TGI (MCF7 breast) was > 100 µM, the GI50 (A498 renal) was 0.186 µM and the TGI (A498 renal) was 0.728 µM. For the same compound, the GI50 (HT29 colon) was 0.387 µM, the TGI (HT29 colon) was > 100 µM and the GI50 (EKVX NSCLC) was 1.8 µM. For the same compound, the TGI (EKVX NSCLC) was > 100 µM, the GI50 (KM12 colon) was 0.46 µM and the TGI (KM12 colon) was > 100 µM.
